Data: PMC7567501 (Journal of Enzyme Inhibition and Medicinal Chemistry, 2019)
Where two headings read alike, the source gives them in different places.

Columns and labels:
Aβ1-42 [1] = biological target: T1, Aβ1-42 (Homo sapiens, UniProt P05067); assay: biochemical; settings: read-out: Aβ aggregation inhibition, Self-Aβ aggr
T1 construct: Amyloid β-peptide (1–42), Aβ1-42, was purchased from GeneCust; purchased GeneCust
From the text: (§1) The Aβ amyloid plaques are one of the main hallmarks of AD and they result from over production and aggregation of β-amyloid peptide, which can accumulate outside the neurons, by self-mediated or Cu^2+-induced process, interfering with the synaptic impairment, neurotransmission and memory. Therefore, anti-AD drugs have been designed aimed to disrupt and disaggregate the Aβ’s fibrils into monomers, obtaining non-toxic forms of β-secretase’s products. To assess the effect of these new hybrids in the inhibition of amyloid peptide aggregation, a selection of the compounds was in vitro assayed, based on the thioflavin T (ThT) method. Indeed ThT is a histochemical dye able to create ionic or hydrophobic interactions with the peptide β–sheets, the predominant secondary structure of the amyloid fibrils in aqueous solutions[36]. This binding interactions can be monitored by fluorimetry since the presence of ThT-fibrils increases the absorbance and the emission of the ThT dye, and induces red shifts on the absorbance (from 385 to 446 nm) and emission peaks (from 445 to 485 nm)[14]. All the measurements were performed after incubation of the self-mediated and Cu^2+-induced Aβ aggregates in the presence/absence of the herein studied compounds. […]. […] This may be rationalised on the basis of their copper chelating capacity, as previously shown by other metal chelating compounds[14]^,[38]. Furthermore, despite some exceptions (e.g. 20 and 24), the increase in linker length and the chloro TAC substitution induce some small negative effects in the inhibition of Aβ self-aggregation.
(§2) For the study of the β-amyloid (Aβ) aggregation, the ThT fluorescence assay was performed using a Varian Cary Eclipse fluorimeter at the following wavelengths: excitation (446 nm) and emission (485 nm). Amyloid β-peptide (1–42), Aβ1-42, was purchased from GeneCust as a lyophilised powder stored at −20 °C. TEM assays were performed with a Hitachi H8100 transmission electron microscope with a LaB6 filament (200 kV, 10000–20000 × magnification) at MicroLab/IST.
(§3) Among all the methods to measure the aggregation of Aβ1-42, the assay based on Thioflavin T (ThT) is the standard procedure based on the fluorescence of this dye[49]^,[50]. This test is performed with Aβ1-42 peptide previously prepared by dissolving it in 1,1,1,3,3,3–hexafluoro-2-propanol (HFIP), an organic solvent useful to solubilise and monomerize the β–sheet protein aggregates and reserve them in the fridge. Films are re-dissolved in an Eppendorf tube with a fresh solution of a mixture of CH3CN/Na2CO3/NaOH, to have a stable stock solution, and afterwards, added to an optimised fibrillation phosphate buffer. The samples were prepared using MeOH (1 mg/mL) as solvent, followed by incubation in a water bath for 24 h at 37 °C with gentle shaking. After incubation, the samples were added to a 96-well plate (BD Falcon) with 180 µL of 5 µM ThT in 50 mM glycine-NaOH (pH 8.5) buffer. Blank samples were prepared for each concentration in a similar way, devoid of peptide. After 5-min incubation with the dye, the ThT fluorescence was measured at 446 nm (excitation) and 485 nm (emission).

AChE = biological target: T2, AChE (Electrophorus electricus, UniProt O42275); assay: biochemical; set-up: species or system Electrophorus electricus (electric eel)
T2 construct: extracted from Electrophorus electricus (electric eel); purchased Sigma-Aldrich; host or cells: Electrophorus electricus (extracted)
T2 sequence (O42275 24-633): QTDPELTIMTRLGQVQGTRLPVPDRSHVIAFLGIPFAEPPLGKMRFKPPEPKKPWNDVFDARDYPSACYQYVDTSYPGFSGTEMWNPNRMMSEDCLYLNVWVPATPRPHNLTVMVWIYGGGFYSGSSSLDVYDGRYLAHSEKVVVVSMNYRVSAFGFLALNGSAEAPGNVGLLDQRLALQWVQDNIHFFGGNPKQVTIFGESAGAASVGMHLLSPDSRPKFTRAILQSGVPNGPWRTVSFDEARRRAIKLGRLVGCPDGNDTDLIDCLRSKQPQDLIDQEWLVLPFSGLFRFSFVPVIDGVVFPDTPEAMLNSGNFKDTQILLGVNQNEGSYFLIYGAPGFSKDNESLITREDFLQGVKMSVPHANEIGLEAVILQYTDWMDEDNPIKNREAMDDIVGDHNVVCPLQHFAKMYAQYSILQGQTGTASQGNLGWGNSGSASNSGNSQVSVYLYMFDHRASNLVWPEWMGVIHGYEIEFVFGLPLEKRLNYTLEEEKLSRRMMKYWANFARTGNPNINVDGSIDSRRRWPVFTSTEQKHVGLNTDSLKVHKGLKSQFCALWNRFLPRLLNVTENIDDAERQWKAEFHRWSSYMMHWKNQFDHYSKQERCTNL
Procedure: The electronic spectra and the AChE inhibition assays were performed in a 1-cm path length quartz cell with a Perkin Elmer Lambda 35 spectrophotometer equipped with a temperature programmer PTP1 + 1 Peltier System (T = 25.0 ± 0.1 °C). The enzyme AChE 500 U, extracted from Electrophorus electricus (electric eel), was purchased from Sigma-Aldrich.
The enzymatic activity of AChE was determined using an adaptation of the Ellman’s method, as described previously[29]^,[32]. Firstly, a stock solution of AChE was prepared by dissolving enzyme 500 U in 10 mL of tris(hydroxymethyl)aminomethane (TRIS) buffer (50 mM, pH 8). Then, 4–(2-hydroxyethyl)-1-piperazineethanesulfonic acid (HEPES) buffer was used for further dilution of the enzyme solution therefore obtaining the final working solution of AChE. The assay solution consisted of 374 µL of HEPES buffer (50 mM and pH 8.0), a variable volume (10–50 µL) of the compound’s stock solution (1 mg/mL of MeOH), 476 µL of 3 mM bis(3-carboxy-4-nitrophenyl) disulphide (DTNB), 25 µL of AChE stock solution and the necessary amount of methanol to attain the same volume of sample mixture in a 1 mL cuvette. After mixing, samples were left to incubate for 15 min and then 75 µL of 16 mM acetylthiocholine iodide (AChI) solution was added and immediately the reaction was monitored at 405 nm for 5 min. Firstly, enzyme activity was determined by measuring the rate of enzymatic reaction in solution by recording absorbance (with or without enzyme) at 405 nm. To calculate the percent inhibition of AChE, the enzyme activity in the presence of increasing concentrations of the test compound, as well as for a blank reaction (methanol without compounds), were measured at 405 nm.
Where v1is the initial reaction rate in the presence of the inhibitor and v0 is the initial rate of the control reaction. The curves of inhibition were obtained using a plot of percentage of enzymatic inhibition versus inhibitor concentration, and a calibration curve was obtained from which the linear regression parameters were obtained.

SH-SY5Y cells = assay: Dose-response screening for non-toxic concentrations, MTT reduction assay; type: cell-based, human; settings: 10 µM to 40 µM, 25 h
Procedure: The neuroprotective effect of these new multi-target drugs designed for AD was evaluated using SH-SY5Y cells treated with Aβ1-42 peptides or ascorbate/iron. For each compound we performed a dose-response curve to select a non-toxic concentration (Figure 7).
Figure 7. Dose-response screening to select non-toxic concentrations of TAC-BF hybrids. Cells were treated with varying concentration of TAC-BF conjugates (from 10 μM to 40 μM) for 25 h and cell viability was determined using the MTT reduction assay.
SH-SY5Y human neuroblastoma cell line (ATCC-CRL-2266) is grown in Dulbecco’s modified Eagle’s medium (DMEM), and were obtained from Gibco-Invitrogen (Life Technologies Ltd, UK) with 10% heat inactivated foetal calf serum, containing 50 U/mL penicillin and 50 µg/mL streptomycin, under a humidified atmosphere of 95% air- 5% CO2 at 37 °C. Cells were plated at 0.12 × 10^6 cells/mL for cell viability assay. The tested compounds (18, 19, 20, 21, 23 and 24) were dissolved in DMSO at a concentration of 50 mM and aliquots were stored at −20 °C. We performed a dose-response screening (from 10 µM to 40 µM) in order to choose the highest non-toxic concentration. As a result we selected: 20 µM final concentrations for compounds 18, 19, 20 and 23; 20 µM final concentration for compound 19; 35 µM final concentration for compounds 21 and 24. […] The compounds were added to the cell media 1 h before the incubation with Aβ1-42 or L-ascorbic acid/ferrous sulphate. Aβ1-42 or L-ascorbic acid/ferrous sulphate where incubated alone or with the compound for an additional 24 h. Aβ1-42 was prepared as 276.9 µM stock in sterile water and added to the medium at 2.5 µM final concentration. Ferrous sulphate was freshly prepared as 0.36 M stock in water and added to the medium at 500 µM final concentration. L-Ascorbic Acid was freshly prepared as 80 mM stock in water and added to the medium at 5 mM final concentration. Aβ1-42 was purchased from Bachem (Torrance, CA, USA) and ferrous sulphate and L-ascorbic acid from Sigma Chemical Co (St. Louis, MO, USA).
Cell viability was determined by the MTT (3–(4,5-dimethylthiazol-2-yl)-2,5-diphenyltetrazolium bromide) reduction test. In viable cells, the enzyme succinate dehydrogenase metabolises MTT into a formazan that absorbs light at 570 nm. Following the cell treatment protocol, the medium was aspirated and 0.5 mL MTT (0.5 mg/mL) was added to each well. The plate was then incubated at 37 °C for 1 h 30 min protected from light. At the end of the incubation period, the formazan precipitates were solubilised with 0.5 mL of acidic isopropanol (0.04 M HCl/isopropanol). The absorbance was measured at 570 nm[51]. Cell reduction ability was expressed as a percentage of untreated control cells.

Aβ1-42 [2] = biological target: T1, Aβ1-42; assay: Inhibition of Cu2+-induced Aβ1-42 aggregation, thioflavin T fluorescence; type: biochemical; settings: Aβ42 aggregation with copper (40 µM); inhibitor 80 µM; ThT fluorescence; read-out: Aβ aggregation inhibition, Cu-ind Aβ aggr
From the text: as §1, §2
as §3, with “The samples were prepared using MeOH (1 mg/mL) as solvent, followed by incubation in a water bath for 24 h at 37 °C with gentle shaking. After incubation, the samples were added to a 96-well plate (BD Falcon) with 180 µL of 5 µM ThT in 50 mM glycine-NaOH (pH 8.5) buffer. Blank samples were prepared for each concentration in a similar way, devoid of peptide.” left out

[3] = Radical scavenging (anti-oxidant) activity, DPPH method; type: physicochemical; settings: DPPH in methanol, 30 min, room temperature
Procedure: A selection of the newly synthesised hybrids was tested for their radical scavenging activity (anti-oxidant activity, EC50), based on their interaction with the 2,2-diphenyl-1-picrylhydrazyl (DPPH) free radical, as previously described.
The anti-oxidant capacity or, more precisely, radical scavenging activity based on the electron and proton donation ability, was evaluated by the DPPH method previously described[29]^,[46]. To a 2.5 mL solution of DPPH (0.002%) in methanol, solutions of each compound were added in different volumes to obtain different concentrations in a 3.5 mL final volume. The samples were incubated for 30 min at room temperature. The absorbance was measured at 517 nm against the corresponding blank (methanol). The antioxidant activity was calculated by Eq. (1)^29. (1) %AA = ((ADPPH−Asample)/ADPPH) × 100
The tests were carried out in triplicate. The compound concentration providing 50% of antioxidant activity (EC50) was obtained by plotting the antioxidant activity against the compound concentration.

[4] = self-mediated Aβ42 aggregation without copper, inhibitor 80 µM, ThT fluorescence
[5] = AChE from Electric eel, mean of five independent experiments, read-out: AChE inhibition IC50

T1 sequence (P05067 672-713 limits assumed): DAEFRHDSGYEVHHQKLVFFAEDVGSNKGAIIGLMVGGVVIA

Row | Structure (SMILES) | inhibition at 80 µM (Aβ1-42 [1]; [4]) [%] | IC50 (AChE; [5]) [nM] | other results
1 | O=C(NCCCNc1c2c(nc3ccccc13)CCCC2)c1cc2ccccc2o1 [Compound 13, N-(3-((1,2,3,4-tetrahydroacridin-9-yl)amino)propyl)benzofuran-2-carboxamide] | 60.6 | 580 | 
2 | O=C(NCCCCNc1c2c(nc3ccccc13)CCCC2)c1cc2ccccc2o1 [Compound 14, N-(4-((1,2,3,4-tetrahydroacridin-9-yl)amino)butyl)benzofuran-2-carboxamide] | 51.5 | 720 | 
3 | O=C(NCCCNc1c2c(nc3cc(Cl)ccc13)CCCC2)c1cc2ccccc2o1 [Compound 15, N-(3-((6-chloro-1,2,3,4-tetrahydroacridin-9-yl)amino)propyl)benzofuran-2-carboxamide] | 51 | 120 | 
4 | O=C(NCCCCNc1c2c(nc3cc(Cl)ccc13)CCCC2)c1cc2ccccc2o1 [Compound 16, N-(4-((6-chloro-1,2,3,4-tetrahydroacridin-9-yl)amino)butyl)benzofuran-2-carboxamide] | 43 | 340 | 
5 | COc1cccc2cc(C(=O)NCCCNc3c4c(nc5ccccc35)CCCC4)oc12 [Compound 17, 7-Methoxy-N-(3-((1,2,3,4-tetrahydroacridin-9-yl)amino)propyl)benzofuran-2-carboxamide] | 57.5 | 360 | 
6 | COc1cccc2cc(C(=O)NCCCCNc3c4c(nc5ccccc35)CCCC4)oc12 [Compound 18, 7-Methoxy-N-(4-((1,2,3,4-tetrahydroacridin-9-yl)amino)butyl)benzofuran-2-carboxamide] |  |  | highest non-toxic concentration selected from dose-response screening (SH-SY5Y cells): 20 µM; inhibition at 80 µM (Aβ1-42 [1]): 51.9%; IC50 (AChE): 760 nM
7 | O=C(NCCCCNc1c2c(nc3ccccc13)CCCC2)c1cc2cccc(O)c2o1 [Compound 22, 7-Hydroxy-N-(4-((1,2,3,4-tetrahydroacridin-9-yl)amino)butyl)benzofuran-2-carboxamide] | 30.4 | 980 | inhibition at 80 µM (Aβ1-42 [2]): 54%
8 | Nc1c2c(nc3ccccc13)CCCC2 [TAC, tacrine, reference compound] |  |  | inhibition at 80 µM (Aβ1-42 [1]): 20%; Radical scavenging activity EC50 (DPPH) [3]: weak activity
